Experimental data: article PMC8208167 (Applied and Environmental Microbiology, 2021)

Assays:
[1] = target: biuret hydrolase (BiuH) (Herbaspirillum sp. BH-1, UniProt A0A2N6JFV5); assay: ammonia release, Berthelot reaction; type: biochemical; settings: pH […], sodium phosphate; turnover
[2] = test system: guanylurea hydrolase (GuuH); assay: ammonia release, Berthelot reaction; type: biochemical, Ectopseudomonas mendocina; settings: read-out: Exptl determination; 125 mM sodium phosphate, pH 8.0 (optimum), room temperature

biuret hydrolase (BiuH), sequence (A0A2N6JFV5 1-231): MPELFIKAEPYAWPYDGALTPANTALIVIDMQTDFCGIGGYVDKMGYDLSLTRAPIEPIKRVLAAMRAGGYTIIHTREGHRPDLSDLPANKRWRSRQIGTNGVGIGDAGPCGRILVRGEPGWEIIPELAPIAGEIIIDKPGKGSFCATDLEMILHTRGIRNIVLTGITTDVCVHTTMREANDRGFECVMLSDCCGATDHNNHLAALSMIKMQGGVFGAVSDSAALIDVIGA

SMILES	activity [1]	Km [2] [µM]
NC(=O)NC(N)=O [biuret]	diminished activity with biuret compared to that of the wild type	–
N=C(N)NC(N)=O [guanylurea]	–	16
